Test [1] deals with T1, NAD-dependent protein deacetylase sirtuin-1 (Homo sapiens) (UniProt Q96EB6).
T1 sequence (whole entry): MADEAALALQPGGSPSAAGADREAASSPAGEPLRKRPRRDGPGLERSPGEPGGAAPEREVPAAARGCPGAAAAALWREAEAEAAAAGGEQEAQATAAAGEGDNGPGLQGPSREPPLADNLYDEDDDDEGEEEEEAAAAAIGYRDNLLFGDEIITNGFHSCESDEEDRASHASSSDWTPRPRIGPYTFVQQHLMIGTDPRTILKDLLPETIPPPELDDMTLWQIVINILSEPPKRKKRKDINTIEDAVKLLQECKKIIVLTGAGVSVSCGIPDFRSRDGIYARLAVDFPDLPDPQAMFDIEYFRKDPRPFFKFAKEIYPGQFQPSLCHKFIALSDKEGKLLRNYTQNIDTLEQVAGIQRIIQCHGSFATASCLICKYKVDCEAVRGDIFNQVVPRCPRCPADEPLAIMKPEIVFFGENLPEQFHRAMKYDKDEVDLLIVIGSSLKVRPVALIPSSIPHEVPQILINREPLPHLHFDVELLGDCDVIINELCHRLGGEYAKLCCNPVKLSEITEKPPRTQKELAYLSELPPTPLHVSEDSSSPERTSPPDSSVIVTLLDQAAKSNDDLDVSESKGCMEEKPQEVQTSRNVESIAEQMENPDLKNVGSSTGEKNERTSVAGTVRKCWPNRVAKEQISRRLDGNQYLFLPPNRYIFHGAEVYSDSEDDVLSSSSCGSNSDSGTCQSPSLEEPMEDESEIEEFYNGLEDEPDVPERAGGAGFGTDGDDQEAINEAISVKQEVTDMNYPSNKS
As to the kind of experiment: Inhibition of human SIRT1 expressed in Escherichia coli BL21 at 250 uM using H3K9AcWW as substrate preincubated for 15 mins followed by substrate addition measured after 1 hr by HPLC analysis relative to control.

Test [2] deals with T2, NAD-dependent protein deacylase sirtuin-5, mitochondrial (Homo sapiens, UniProt Q9NXA8). As to the kind of experiment: Inhibition of human SIRT5 expressed in Escherichia coli BL21 at 250 uM using H3K9AcWW as substrate preincubated for 15 mins followed by substrate addition measured after 1 hr by HPLC analysis relative to control.
Target sequence in this assay (Q9NXA8 37-310 limits assumed): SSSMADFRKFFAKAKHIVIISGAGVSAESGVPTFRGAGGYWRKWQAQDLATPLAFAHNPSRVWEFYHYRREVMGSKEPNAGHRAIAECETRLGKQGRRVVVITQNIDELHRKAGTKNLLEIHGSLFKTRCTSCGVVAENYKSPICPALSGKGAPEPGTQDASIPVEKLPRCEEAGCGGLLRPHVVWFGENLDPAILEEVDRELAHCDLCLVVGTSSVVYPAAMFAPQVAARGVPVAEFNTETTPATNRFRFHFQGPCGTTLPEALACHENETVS
Test [3] has as its target T3, NAD-dependent protein deacylase sirtuin-6 (Homo sapiens, UniProt Q8N6T7). Briefly: Inhibition of human SIRT6 (1 to 294 residues) expressed in Escherichia coli Rosetta (DE3) at 250 uM using H3K9AcWW as substrate preincubated for 15 mins followed by substrate addition measured after 1 hr by HPLC analysis relative to control.
In test [4] the target is T4, NAD-dependent protein deacetylase sirtuin-1 (Homo sapiens, UniProt Q96EB6).
T4 sequence (Q96EB6 whole entry): T1 sequence (whole entry)
Briefly: Inhibition of human SIRT1 expressed in Escherichia coli BL21 using H3K9AcWW as substrate preincubated for 15 mins followed by substrate addition measured after 1 hr by HPLC analysis.

Test [5] deals with T5, NAD-dependent protein deacetylase sirtuin-2 (Homo sapiens, UniProt Q8IXJ6).
T5 sequence (Q8IXJ6 whole entry): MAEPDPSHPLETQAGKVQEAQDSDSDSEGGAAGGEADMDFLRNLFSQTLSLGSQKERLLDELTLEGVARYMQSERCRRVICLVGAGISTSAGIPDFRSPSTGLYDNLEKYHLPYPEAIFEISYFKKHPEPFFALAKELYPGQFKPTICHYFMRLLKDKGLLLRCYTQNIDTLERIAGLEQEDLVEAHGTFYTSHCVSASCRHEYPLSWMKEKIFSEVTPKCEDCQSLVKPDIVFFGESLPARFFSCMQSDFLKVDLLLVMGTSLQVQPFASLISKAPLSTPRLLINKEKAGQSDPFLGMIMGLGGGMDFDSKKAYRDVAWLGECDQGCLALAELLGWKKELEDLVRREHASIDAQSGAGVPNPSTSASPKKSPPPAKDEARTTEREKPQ
As to the kind of experiment: Inhibition of human N-terminal His6-SUMO-tagged SIRT2 (38 to 356 residues) expressed in Escherichia coli BL21 using H3K9AcWW as substrate preincubated for 15 mins followed by substrate addition measured after 1 hr by HPLC analysis.

For test [6], the target named is T6, NAD-dependent protein deacetylase sirtuin-3, mitochondrial (Homo sapiens, UniProt Q9NTG7).
T6 sequence (Q9NTG7 whole entry): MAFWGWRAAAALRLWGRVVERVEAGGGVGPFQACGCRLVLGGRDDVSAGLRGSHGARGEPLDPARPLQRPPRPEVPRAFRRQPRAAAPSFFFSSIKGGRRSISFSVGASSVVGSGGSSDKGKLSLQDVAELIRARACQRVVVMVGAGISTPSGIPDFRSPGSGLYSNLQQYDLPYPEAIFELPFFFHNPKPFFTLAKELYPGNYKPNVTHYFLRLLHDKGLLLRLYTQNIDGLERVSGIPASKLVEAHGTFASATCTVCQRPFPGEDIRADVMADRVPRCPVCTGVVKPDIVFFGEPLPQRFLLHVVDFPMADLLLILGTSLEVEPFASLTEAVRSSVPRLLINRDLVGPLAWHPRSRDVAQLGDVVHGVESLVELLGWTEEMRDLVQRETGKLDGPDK
Briefly: Inhibition of human SIRT3 expressed in Escherichia coli BL21 using H3K9AcWW as substrate preincubated for 15 mins followed by substrate addition measured after 1 hr by HPLC analysis.

Test [7] has as its target T2, NAD-dependent protein deacylase sirtuin-5, mitochondrial. Briefly: Inhibition of human SIRT5 expressed in Escherichia coli BL21 using H3K9AcWW as substrate preincubated for 15 mins followed by substrate addition measured after 1 hr by HPLC analysis.
Target sequence in this assay (Q9NXA8 whole entry, the tested form may be a part): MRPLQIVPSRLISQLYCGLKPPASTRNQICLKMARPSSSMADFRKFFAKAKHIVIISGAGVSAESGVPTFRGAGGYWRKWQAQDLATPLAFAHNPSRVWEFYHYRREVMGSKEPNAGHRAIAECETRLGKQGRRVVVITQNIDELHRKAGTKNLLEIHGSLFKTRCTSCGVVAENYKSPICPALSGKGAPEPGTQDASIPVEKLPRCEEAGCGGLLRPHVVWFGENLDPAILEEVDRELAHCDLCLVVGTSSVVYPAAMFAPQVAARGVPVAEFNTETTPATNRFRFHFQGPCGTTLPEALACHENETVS
Test [8] addresses T3, NAD-dependent protein deacylase sirtuin-6. As to the kind of experiment: Inhibition of human SIRT6 (1 to 294 residues) expressed in Escherichia coli Rosetta (DE3) using H3K9AcWW as substrate preincubated for 15 mins followed by substrate addition measured after 1 hr by HPLC analysis.
The target in test [9] is T7, NAD-dependent protein deacetylase sirtuin-2 (Homo sapiens) (UniProt Q8IXJ6).
T7 sequence (whole entry): T5 sequence (Q8IXJ6 whole entry)
Briefly: Inhibition of human N-terminal His6-SUMO-tagged SIRT2 (38 to 356 residues) expressed in Escherichia coli BL21 at 250 uM using H3K9AcWW as substrate preincubated for 15 mins followed by substrate addition measured after 1 hr by HPLC analysis relative to control.

The species named for test [10] is Homo sapiens. As to the kind of experiment: Selectivity ratio of IC50 for human SIRT1 expressed in Escherichia coli BL21 to IC50 for human N-terminal His6-SUMO-tagged SIRT2 (38 to 356 residues) expressed in Escherichia coli BL21.
Test [11] is filed under the species Homo sapiens. Briefly: Selectivity ratio of IC50 for human SIRT3 expressed in Escherichia coli BL21 to IC50 for human N-terminal His6-SUMO-tagged SIRT2 (38 to 356 residues) expressed in Escherichia coli BL21.
For test [12], the species on record is Homo sapiens. Briefly: Selectivity ratio of IC50 for human SIRT5 expressed in Escherichia coli BL21 to IC50 for human N-terminal His6-SUMO-tagged SIRT2 (38 to 356 residues) expressed in Escherichia coli BL21.
For test [13], the species on record is Homo sapiens. As to the kind of experiment: Selectivity ratio of IC50 for human SIRT6 (1 to 294 residues) expressed in Escherichia coli Rosetta (DE3) to human N-terminal His6-SUMO-tagged SIRT2 (38 to 356 residues) expressed in Escherichia coli BL21.
The target in test [14] is T7, NAD-dependent protein deacetylase sirtuin-2 (Homo sapiens). As to the kind of experiment: Competitive inhibition of human N-terminal His6-SUMO-tagged SIRT2 (38 to 356 residues) expressed in Escherichia coli BL21 at 5 to 10 uM using H3K9AcWW as substrate assessed as increase in substrate Km preincubated for 15 mins followed by substrate addition measured after 1 hr by double-reciprocal plot analysis.

Broadly, the inhibition is the change of the read-out against control, counted positive when it falls. By pIC50 is commonly meant the negative decadic logarithm of the IC50, by convention in mol/L. A low value points to a high IC50.

pIC50: −log10 of the molar value. The source made the active and inactive calls. The rule behind the calls is not given here. Residues, ends and D or L forms follow the SMILES beside them. *: point of attachment. X2 = CCCCCCCCCCCCCNC(=O)CCC*; X1 = CCCCCCCCCCNC(=O)CCC*; X3 = CCCCCCCCNC(=O)CCC*

T3 sequence (Q8N6T7 whole entry, the tested form may be a part): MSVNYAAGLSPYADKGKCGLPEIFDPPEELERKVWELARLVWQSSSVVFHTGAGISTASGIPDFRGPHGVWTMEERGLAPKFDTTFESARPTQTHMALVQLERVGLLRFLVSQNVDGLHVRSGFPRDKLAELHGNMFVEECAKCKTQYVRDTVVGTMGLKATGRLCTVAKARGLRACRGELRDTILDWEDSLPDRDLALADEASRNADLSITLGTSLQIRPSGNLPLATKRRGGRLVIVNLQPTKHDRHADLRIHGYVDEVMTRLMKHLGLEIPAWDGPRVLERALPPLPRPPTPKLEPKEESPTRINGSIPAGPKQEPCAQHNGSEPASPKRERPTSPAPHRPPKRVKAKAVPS

In the case of `CCCCCCCCNC(=O)CCCSC[C@H](NC(=O)[C@H](CCCNC(=N)N)NC(=O)[C@H](C)NC(=O)[C@@H](NC(=O)[C@H](CCC(N)=O)NC(=O)[C@@H](N)CCCCN)[C@@H](C)O)C(=O)N[C@@H](CO)C(=O)N[C@H](C(=O)NCC(=O)NCC(=O)N[C@@H](CCCCN)C(=O)O)[C@@H](C)O` (H-KQTARC(X3)STGGK-OH), the values for the inhibition in test [1] and in test [9] were 23% and 66%, respectively. The inhibition result in test [2] and in test [3] was “inactive” in each case. Besides, the pIC50 in [4] is < 3.52; in [5], 3.63; in [6], < 3.30; in test [7], < 3.30; in [8] it was < 3.30.
`CCCCCCCCCCNC(=O)CCCSC[C@H](NC(=O)[C@H](CCCNC(=N)N)NC(=O)[C@H](C)NC(=O)[C@@H](NC(=O)[C@H](CCC(N)=O)NC(=O)[C@@H](N)CCCCN)[C@@H](C)O)C(=O)N[C@@H](CO)C(=O)N[C@H](C(=O)NCC(=O)NCC(=O)N[C@@H](CCCCN)C(=O)O)[C@@H](C)O` (H-KQTARC(X1)STGGK-OH): the inhibition was 60% in test [1], 41% in test [3] and 95% in [9]. For the same compound, the inhibition result in test [2] was “inactive”. For the same compound, the negative logarithm of the IC50 (pIC50) in test [4] was < 3.70; in test [5], 4.70; in [6] it was < 3.30; in test [7] it was < 3.30; in [8], < 3.60. Further, the Ratio IC50 in [10], in test [11], in [12] and in test [13] was > 10 each time. For the same compound, in [14], the inhibition entry was “Active”.
Regarding `CCCCCCCCCCCCCNC(=O)CCCSC[C@H](NC(=O)[C@H](CCCNC(=N)N)NC(=O)[C@H](C)NC(=O)[C@@H](NC(=O)[C@H](CCC(N)=O)NC(=O)[C@@H](N)CCCCN)[C@@H](C)O)C(=O)N[C@@H](CO)C(=O)N[C@H](C(=O)NCC(=O)NCC(=O)N[C@@H](CCCCN)C(=O)O)[C@@H](C)O` (H-KQTARC(X2)STGGK-OH), the inhibition in test [1] is 67%; in [3] it was 54%; in [9] it was 87%. The inhibition entry in test [2] was “inactive”. Further, the pIC50 in [4] is < 3.70; in test [5], 4.46; in test [6], < 4.30; in test [7], < 4.30; in test [8], < 4.70. Also, the Ratio IC50 in test [10], in [11], in test [12] and in [13] was 10 throughout.

For the origin of these results see ChEMBL document CHEMBL4118276, “The mimics of Nε-acyl-lysine derived from cysteine as sirtuin inhibitors” (Bioorg Med Chem Lett, 2018).
